Columns and labels:
[1] = tested on: rat hind paw incision model; experiment: Brennan incisional pain model, prophylactic paradigm; assay type: in vivo; conditions: single pre-surgical dose; 24 h, 48 h, 72 h post dose; FIG. 11
Text: (§1) Two incisional pain models were used to assess Compound 1 effects on hyperalgesia. The first model is referred to as the Brennan model in which, under anesthesia, a 1 cm longitudinal incision to the skin and underlying fascia of a rat hindpaw is made. The second is a variation but is a more invasive procedure in which the skin and muscle are spread apart using forceps which creates a longer-lasting hypersensitivity.
Using the Brennan protocol and a prophylactic paradigm, Compound 1 (3 doses given PO) or vehicle was administered 15 min prior to incision. At the 24-, 48-, and 72-h time points post-incision, mechanical thresholds were obtained (manual von Frey filament, using up/down method).
In a subsequent experiment, the same paradigm was used with Compound 1 administered at a dose of 30 mg/kg PO along with positive control group consisting of celecoxib (30 mg/kg PO), morphine (10 mg/kg SC), and vehicle.

[2] = tested on: established incision-induced mechanical hyperalgesia; experiment: Brennan incisional pain model, treatment paradigm; assay type: in vivo, rat; conditions: morphine 3 mg/kg SC
Text: as §1
Using the Brennan protocol and a treatment paradigm in rat, Compound 1 (10 and 30 mg/kg PO), morphine (3 mg/kg SC) or vehicle were administered daily at 24 h post-incision, and again at 48 and 72 h post-incision. Mechanical thresholds were obtained at 1 h and 2 h post-dose in all cohorts on all days.

SMILES	effect on development of mechanical hyperalgesia [1]	effect on established mechanical hyperalgesia (overall) ([2]; Compound 1 10 and 30 mg/kg PO daily, FIG. 12)	analgesia ([2]; Day 1, 2-h time point)	mechanical threshold ([2]; Day 1, 1 h post-dose)	hyperalgesia ([2]; Day 2, 1-h time point)	hyperalgesia ([2]; Day 2, 2 h)	mechanical threshold ([2]; Day 2 prior to dosing (Pre-Drug (D2)))
Cc1ccc(-c2cc(C(F)(F)F)nn2-c2ccc(S(N)(=O)=O)cc2)cc1 [celecoxib, reference compound]	no effect						
CN1CC[C@]23c4c5ccc(O)c4O[C@H]2[C@@H](O)C=C[C@H]3[C@H]1C5 [morphine, reference compound]	no effect	analgesic at t=1 h on d1, and at t=1 h and 2 h post-dose on d2 and d3	this effect waned	45 g	not hyperalgesic	mild hyperalgesia	< 15 g

From patent publication US20200246316A1, “METHODS OF TREATING POST-SURGICAL PAIN WITH A THIAZOLINE ANTI-HYPERALGESIC AGENT” (CERSCI THERAPEUTICS, INC., priority 2019, published 2020)
